Literature values as cited in PMC3433420 (PLoS ONE, 2012).
Like-named read-outs stand apart in the source and are kept apart here.

Target: SH2 and PTB domains
Settings: ref Jones et al. 2006 / Kaushansky et al. Chem and Biol 2008, cited from earlier work
Source text: Supplement pone.0044471.s022.xlsx, sheet "Most recent PM interactions" | column: Kd || Supplement pone.0044471.s022.xlsx, sheet "All original PM interactions" | column: Kd

PGGDpYAAMGACPd [ErbB3 pY1276, N-terminally rhodamine-labeled 13-mer phosphopeptide]
Kd (Protein ABL1, original PM interactions): 2000 nM
Kd (Protein BCAR3, original PM interactions): 2000 nM
Kd (Protein CRKL, original PM interactions): 440 nM
Kd (Protein PIK3R3-C, original PM interactions): 500 nM
Kd (Protein PIK3R3-N, original PM interactions): 500 nM
Kd (Protein PTK6, original PM interactions): 440 nM
Kd (Protein SH2B2, original PM interactions): 2000 nM
Kd (Protein SHC1, original PM interactions): 600 nM
Kd (Protein SLA2, original PM interactions): 2000 nM
Kd (Protein SLA, original PM interactions): 2000 nM
Kd (Protein SYK-NC, original PM interactions): 600 nM
Kd (Protein TENC1, original PM interactions): 2000 nM
Kd (Protein VAV1, original PM interactions): 2000 nM
Kd (protein ABL2): 150 nM
Kd (protein CRK): 260 nM
Kd (protein CRKL): 440 nM
Kd (protein HCK): 580 nM
Kd (protein NCK1): 210 nM
Kd (protein NCK2): 550 nM
Kd (protein PIK3R1-N): 530 nM
Kd (protein PIK3R1-NC): 55 nM
Kd (protein PIK3R2-C): 930 nM
Kd (protein PIK3R2-N): 120 nM
Kd (protein PIK3R2-NC): 80 nM
Kd (protein PIK3R3-C): 500 nM
Kd (protein PIK3R3-N): 500 nM
Kd (protein PIK3R3-NC): 14 nM
Kd (protein PLCG1-C): 690 nM
Kd (protein PLCG1-NC): 720 nM
Kd (protein PTK6): 440 nM
Kd (protein RASA1-N): 910 nM
Kd (protein SHC1): 600 nM
Kd (protein SHC3): 640 nM
Kd (protein SYK-NC): 600 nM
Kd (protein TXK): 1670 nM
Kd (protein VAV2): 300 nM
Kd (protein VAV3): 1540 nM
Kd (protein ZAP70-C): 1440 nM

PKQEpYLNPVEENd [ErbB4 pY1162, N-terminally rhodamine-labeled 13-mer phosphopeptide]
Kd (protein ABL2, all original PM interactions): 320 nM
Kd (protein ABL2): 280 nM
Kd (protein CRK, all original PM interactions): 2000 nM
Kd (protein CRKL, all original PM interactions): 2000 nM
Kd (protein NCK2, all original PM interactions): 2000 nM
Kd (protein PIK3R2-N, all original PM interactions): 2000 nM
Kd (protein PIK3R3-NC, all original PM interactions): 2000 nM
Kd (protein PLCG1-C, all original PM interactions): 2000 nM
Kd (protein PLCG1-NC, all original PM interactions): 2000 nM
Kd (protein PTPN11-N, all original PM interactions): 2000 nM
Kd (protein RASA1-N, all original PM interactions): 2000 nM
Kd (protein RASA1-N): 980 nM
Kd (protein SLA, all original PM interactions): 2000 nM
Kd (protein SYK-NC, all original PM interactions): 2000 nM
Kd (protein VAV1, all original PM interactions): 2000 nM
Kd (protein VAV2, all original PM interactions): 2000 nM
Kd (protein VAV2): 100 nM
Kd (protein VAV3, all original PM interactions): 2000 nM

PLTCSPQPEpYVNQPDVR [ErbB2 1139]
Kd (Protein ABL1, most recent PM interactions): 160 nM
Kd (Protein ABL2, most recent PM interactions): 70 nM
Kd (Protein BCAR3, most recent PM interactions): 1000 nM
Kd (Protein BMX, most recent PM interactions): 520 nM
Kd (Protein FGR, most recent PM interactions): 450 nM
Kd (Protein GRAP2, most recent PM interactions): 960 nM
Kd (Protein GRB2, most recent PM interactions): 76 nM
Kd (Protein ITK, most recent PM interactions): 1510 nM
Kd (Protein NCK2, most recent PM interactions): 780 nM
Kd (Protein PIK3R1-N, most recent PM interactions): 510 nM
Kd (Protein PIK3R1-NC, most recent PM interactions): 740 nM
Kd (Protein PIK3R2-N, most recent PM interactions): 280 nM
Kd (Protein PIK3R2-NC, most recent PM interactions): 780 nM
Kd (Protein PIK3R3-C, most recent PM interactions): 1220 nM
Kd (Protein PIK3R3-N, most recent PM interactions): 400 nM
Kd (Protein PIK3R3-NC, most recent PM interactions): 300 nM
Kd (Protein PLCG1-C, most recent PM interactions): 1930 nM
Kd (Protein PLCG2-NC, most recent PM interactions): 1280 nM
Kd (Protein PTPN11-NC, most recent PM interactions): 880 nM
Kd (Protein RASA1-N, most recent PM interactions): 680 nM
Kd (Protein SH2D2A, most recent PM interactions): 980 nM
Kd (Protein SH3BP2, most recent PM interactions): 410 nM
Kd (Protein SYK-NC, most recent PM interactions): 970 nM
Kd (Protein TENC1, most recent PM interactions): 570 nM
Kd (Protein TNS3, most recent PM interactions): 770 nM
Kd (Protein VAV1, most recent PM interactions): 210 nM
Kd (Protein VAV2, most recent PM interactions): 230 nM
